The target of series [1] is T1, DNA-PK phosphorylation at Serine 2056 (Homo sapiens, UniProt P78527).
T1 construct: host or cells: FaDu
The experiment in a line: Cellular Assay for Inhibition of DNA-PK Phosphorylation at Serine 2056 (FaDu cells, neocarzinostatin, sandwich ELISA). Format: cell-based. As to conditions: Table 1. Put shortly: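 FaDu cells were pretreated with compound (0.3% DMSO) for 1 h, then exposed to neocarzinostatin at 1 μg/mL final for 2 h to induce DSBs. Protein-normalized lysates were assayed by MSD sandwich ELISA for total and pSer2056 DNA-PK. IC50 came from variable-slope fits of % inhibition relative to DMSO and NCS controls.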
A general note: An ELISA detects its analyte on a solid surface through an enzyme-linked reagent.

Series [2] addresses T2, pDNA-PK ser2056 induction in HCT116 spheroids (Homo sapiens, UniProt P78527).
T2 construct: endogenous in cells; host or cells: HCT116 multicellular tumour spheroids
The series is described as follows: Multicellular tumour spheroid + radiation, pDNA-PK inhibition, HCT116. Format: cell-based. As to conditions: 20 Gy. The procedure:
Multicellular tumour spheroids determination of compound inhibition of pDNA-PK induction following radiation. Tumour spheroids were grown to approximately 0.5 mm in diameter and irradiated with 20 Gy in combination with inhibitor test compounds to determine their potency. Inhibitor concentration for 50% reduction in pDNA-PK induction (IC50) was determined via immunohistochemical staining in spheroid cryosections taken 2 hours following radiation.
Spheroid, Cell Line: […], Immunohistochemical endpoint, pDNA-PK inhibition, EC50 in μm.
Spheroid+radiation pDNA-PK. Radiation: 20 Gy. Drug: serial dilution 5 or 10 μM down to 3.5 nM (11 wells). Spheroids: 3-6 spheroids per well (300-500 μm diameter). 20% O2 and 5% CO2. 96 well plate format.
Protocol: pre-incubate 1 hours with drug, irradiate with 20 Gy, post-incubate 2 hours with drug, freeze and cryosection ×3 replicates.
Endpoint: fluorescent immunostin pDNA-PK ser2056 and image on microscope.
Analysis: determine EC50 concentration that decreases pDNA-PK induction by 50% after radiation.
Multicellular tumour spheroids determination of compound inhibition of pDNA-PK induction following radiation. Tumour spheroids were grown to approximately 0.5 mm in diameter and irradiated with 20 Gy in combination with inhibitor test compounds to determine their potency. Inhibitor concentration for 50% reduction in pDNA-PK induction (IC50) was determined via immunohistochemical staining in spheroid cryosections taken 2 hours following radiation. For cell survival endpoint 8 Gy radiation was used and 3 hours following radiation spheroids were dissociated, counted and plated for colony forming endpoint.
Spheroid+radiation pDNA-PK. Radiation: 20 Gy. Drug: serial dilution 5 or 10 μM down to 3.5 nM (11 wells). Spheroids: 3-6 spheroids per well (300-500 μm diameter). 20% O2 and 5% CO2. 96 well plate format. Endpoint: fluorescent immunostain pDNA-PK ser2056 and image on microscope. Analysis: determine EC50 concentrations that decreases pDNA-PK induction […] after irradiation.
Multicellular tumour spheroids were used to determine potency of test compounds in a 3D tissue environment using inhibition of pDNA-PK induction following radiation or cell survival as the endpoint. For the pDNA-PK endpoint HCT116 or FaDU tumour spheroids were grown to approximately 0.5 mm in diameter and irradiated with 20 Gy in combination with inhibitor test compounds to determine their potency. Experiments were carried out in 96 well plates containing 0.7 mls of MEM media containing 10% FBS and 10 mM glucose under 20% O2 & 5% CO2 at 37° C. Following dilution of compounds 1:1000 from DMSO stocks, compounds were serially diluted from 10 μM down to 3.5 nM and 5-10 spheroids added. 96 well plates were constantly stirred to avoid spheroids settling during the course of the experiment. The inhibitor concentration for 50% reduction in pDNA-PK induction (EC50) was determined via immunohistochemical staining in spheroid cryosections taken 2 hours following radiation using anti-pDNA-PK (ser 2056) and fixed immediately in formalin following sectioning. For cell survival endpoint 8 Gy radiation was used and, 3 hours following radiation, spheroids were dissociated, counted and plated for colony forming endpoint. Data presented in the table compound potency as EC50 [μM].

The target of another series is T3, DNA-PK (Homo sapiens, UniProt P78527).
T3 construct: purchased Invitrogen PR9107A
The series is described as follows: DNA-PK Assay for Biochemical Enzymatic Inhibition (ADP Glo Kinase assay). As to conditions: Table 1. Put shortly:
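Human DNA-PK (25 ng) preincubated 15 min with compounds (ten three-fold dilutions) in HEPES pH 7.5, MgCl2, KCl, calf thymus DNA buffer, then substrate 434.4 μM and ATP 64.4 μM (final) for 60 min at room temperature. ADP-Glo luminescence; percent inhibition fitted by four-parameter regression for IC50.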

A short description of series [3]: Microsomal stability assay, mouse liver microsomes. Conditions: for microsomal CLint at 0.1 uM: male, CD-1, mouse, liver microsomes, pH 7.4, Microsomal Stability Mouse Clint, 0.1 mg/mL microsomes, 0.1 uM compound.
The mark [4] stands for this setting: Example 7, spheroid, cell line HCT115 [sic], 20% O2, read-out: EC50 (pDNA-PK inhibition, immunohistochemical endpoint).
The mark [5] stands for this setting: Example 9 Study 2, 20% O2, read-out: Spheroid Cell line: HCT116 Immunohistochemical endpoint pDNA-PK inhibition EC50.
Where [6] appears, read: Example 8, spheroid, read-out: Cell line: HCT116 Immunohistochemical endpoint pDNA-PK inhibition EC50.

Like-named read-outs stand apart in the source and are kept apart here. Bounds are passed on as bounds.

As usually defined, the IC50 is the point on the concentration scale where inhibition reaches its midpoint. As usually defined, the EC50 is the concentration needed to bring the measured effect to its halfway point. As a reminder, the microsomal CLint is the capacity of the preparation to metabolise the compound, expressed as a volume cleared per time. Higher therefore signals rapid turnover. Regarding `O=C(N[C@H]1CC[C@@H](Oc2nc(N3CCOCC3)cc3ncccc23)CC1)c1ccc(Cl)nc1` [Compound 116, 6-chloro-N-((1s,4s)-4-((7-morpholino-1,6-naphthyridin-5-yl)oxy)cyclohexyl)nicotinamide], the IC50 in series [1] was in the range of 100 to 1000 nM; on DNA-PK, 0.5 to 1 nM. Also, the EC50 in series [2] (setting [4]) and in series [2] (setting [5]) was 1000 to 10000 nM throughout. Moreover, the “Microsomal Stability (mouse) % rem. 60 min” value in series [3] is given as “F (% remaining = 25-50%)”. This compound also returned a microsomal CLint at 0.1 uM in series [3] greater than 116 µL/min/mg.

With `Cc1nn([C@H]2CC[C@@H](Oc3nc(N4CCOCC4)cc4ncccc34)CC2)cc1C(F)(F)F` [Compound 17g, 4-(5-(((1s,4s)-4-(3-methyl-4-(trifluoromethyl)-1H-pyrazol-1-yl)cyclohexyl)oxy)-1,6-naphthyridin-7-yl)morpholine], in series [1], the IC50 lay in the range of 1000 to 10000 nM. Further, the IC50 at DNA-PK was 1 to 10 nM. For the same compound, in series [3], the “Microsomal Stability (mouse) % rem. 60 min” value is “E (% remaining = 0-25%)” and the microsomal CLint at 0.1 uM is greater than 116 µL/min/mg.

`C[C@]1(n2ccnc2)CC[C@@H](Oc2nc(N3CCOCC3)cc3ncccc23)CC1` [Compound 11, 4-(5-(((1s,4s)-4-(1H-imidazol-1-yl)-4-methylcyclohexyl)oxy)-1,6-naphthyridin-7-yl)morpholine]: the IC50 on DNA-PK lay in the range of 10 to 150 nM. Moreover, in series [3], the “Microsomal Stability (mouse) % rem. 60 min” value is recorded as “E (% remaining = 0-25%)” and the microsomal CLint at 0.1 uM is greater than 116 µL/min/mg.

As for `O=C(N[C@H]1CC[C@@H](Oc2nc(N3CCOCC3)cc3ncccc23)CC1)N1CCOCC1` [Compound 14, N-((1s,4s)-4-((7-morpholino-1,6-naphthyridin-5-yl)oxy)cyclohexyl)morpholine-4-carboxamide], the IC50 in series [1] was in the range of 100 to 1000 nM; at DNA-PK, 1 to 10 nM. The EC50 in series [2] (setting [4]), in series [2] (setting [6]) and in series [2] (setting [5]) was 1000 to 10000 nM in each case. For the same compound, the “Microsomal Stability (mouse) % rem. 60 min” value in series [3] is “G (% remaining = 50-75%)”. The microsomal CLint at 0.1 uM in series [3] was less than 116 µL/min/mg.

In the case of `O=C(N[C@H]1CC[C@@H](Oc2nc(N3CCOCC3)cc3ncccc23)CC1)c1ccc[nH]1` [Compound 145], the IC50 in series [1] is less than 100 nM; at DNA-PK, 0.5 to 1 nM. The EC50 in series [2] (setting [4]) and in series [2] (setting [5]) was 10 to 500 nM each time. Besides, the “Microsomal Stability (mouse) % rem. 60 min” value in series [3] is listed as “E (% remaining = 0-25%)”. The intrinsic clearance (microsomal CLint) at 0.1 uM in series [3] is greater than 116 µL/min/mg.

Take `COc1cnc(N[C@H]2CC[C@@H](Oc3nc(N4CCOCC4)cc4ncc(N)cc34)CC2)nc1` [Compound 202, 5-(((1s,4s)-4-((5-methoxypyrimidin-2-yl)amino)cyclohexyl)oxy)-7-morpholino-1,6-naphthyridin-3-amine]: the IC50 is less than 100 nM in series [1] and less than 0.5 nM at DNA-PK. Besides, the EC50 in series [2] (setting [4]) and in series [2] (setting [5]) was 1000 to 10000 nM in each case. Besides, the “Microsomal Stability (mouse) % rem. 60 min” value in series [3] is on record as “E (% remaining = 0-25%)”. Moreover, the microsomal CLint at 0.1 uM in series [3] was greater than 116 µL/min/mg.

As for `O=C(N[C@H]1CC[C@@H](Oc2nc(N3CCOCC3)cc3ncccc23)CC1)c1ncc[nH]1` [Compound 143, N-((1s,4s)-4-((7-morpholino-1,6-naphthyridin-5-yl)oxy)cyclohexyl)-1H-imidazole-2-carboxamide], the IC50 was less than 100 nM in series [1] and less than 0.5 nM on DNA-PK. Also, the EC50 in series [2] (setting [4]) and in series [2] (setting [5]) was 500 to 1000 nM in each case. The “Microsomal Stability (mouse) % rem. 60 min” value in series [3] is recorded as “E (% remaining = 0-25%)”. In series [3], this compound came in with a microsomal CLint at 0.1 uM greater than 116 µL/min/mg.

With `c1cnc(N[C@H]2CC[C@H](Oc3nc(N4CCOCC4)cc4ncccc34)CC2)nc1` [Compound 24, N-((1r,4r)-4-((7-morpholino-1,6-naphthyridin-5-yl)oxy)cyclohexyl)pyrimidin-2-amine], the IC50 at DNA-PK fell in the range of 10 to 150 nM. In series [3], the “Microsomal Stability (mouse) % rem. 60 min” value was “F (% remaining = 25-50%)” and the intrinsic clearance (microsomal CLint) at 0.1 uM is greater than 116 µL/min/mg.

Take `O=C(N[C@H]1CC[C@@H](Oc2nc(N3CCOCC3)cc3ncccc23)CC1)c1cc[nH]n1` [Compound 138, N-((1s,4s)-4-((7-morpholino-1,6-naphthyridin-5-yl)oxy)cyclohexyl)-1H-pyrazole-3-carboxamide]: the figures for the IC50 (in series [1]; on DNA-PK) were 100 to 1000 nM and 0.5 to 1 nM, respectively. Also, the EC50 in series [2] (setting [4]) and in series [2] (setting [5]) was 500 to 1000 nM in each case. Moreover, the “Microsomal Stability (mouse) % rem. 60 min” value in series [3] is recorded as “E (% remaining = 0-25%)”. Moreover, in series [3], the microsomal CLint at 0.1 uM was greater than 116 µL/min/mg.

As to `O=C(N[C@H]1CC[C@@H](Oc2nc(N3CCOCC3)cc3ncccc23)CC1)C1CC1` [Compound 108, N-((1s,4s)-4-((7-Morpholino-1,6-naphthyridin-5-yl)oxy)cyclohexyl)cyclopropanecarboxamide], the results for the IC50 (in series [1]; at DNA-PK) were 100 to 1000 nM and 1 to 10 nM, respectively. Further, the EC50 in series [2] (setting [4]), in series [2] (setting [6]) and in series [2] (setting [5]) was 1000 to 10000 nM each time. Also, the “Microsomal Stability (mouse) % rem. 60 min” value in series [3] was “E (% remaining = 0-25%)”. Besides, in series [3], the microsomal CLint at 0.1 uM was greater than 116 µL/min/mg.

Consider `c1cnc2cc(N3CCOCC3)nc(O[C@H]3CC[C@@H](n4cnnn4)CC3)c2c1` [Compound 17l, 4-(5-(((1s,4s)-4-(1H-tetrazol-1-yl)cyclohexyl)oxy)-1,6-naphthyridin-7-yl)morpholine], for which, in series [3], the “Microsomal Stability (mouse) % rem. 60 min” value is recorded as “E (% remaining = 0-25%)” and the microsomal CLint at 0.1 uM was greater than 116 µL/min/mg.

For `O=C(N[C@H]1CC[C@@H](Oc2nc(N3CCOCC3)cc3ncc(Br)cc23)CC1)c1ncccn1` [Compound 176, N-((1s,4s)-4-((3-bromo-7-morpholino-1,6-naphthyridin-5-yl)oxy)cyclohexyl)pyrimidine-2-carboxamide], the IC50 in series [1] lay within 100 to 1000 nM; on DNA-PK, 0.5 to 1 nM. Besides, the EC50 in series [2] (setting [4]) and in series [2] (setting [5]) was 1000 to 10000 nM in each case.

Regarding `Clc1cnc(N[C@H]2CC[C@@H](Oc3nc(N4CCOCC4)cc4ncccc34)CC2)nc1` [Compound 41, 5-chloro-N-((1s,4s)-4-((7-morpholino-1,6-naphthyridin-5-yl)oxy)cyclohexyl)pyrimidin-2-amine], the IC50 fell in the range of 100 to 1000 nM in series [1] and 0.5 to 1 nM at DNA-PK. The half-maximal effective concentration (EC50) in series [2] (setting [4]) and in series [2] (setting [5]) was 1000 to 10000 nM each time.

`CN(c1ncccn1)[C@H]1CC[C@@H](Oc2nc(N3CCOCC3)cc3ncc(NS(C)(=O)=O)cc23)CC1` [Compound 198, N-(5-(((1s,4s)-4-(methyl(pyrimidin-2-yl)amino)cyclohexyl)oxy)-7-morpholino-1,6-naphthyridin-3-yl)methanesulfonamide]: the IC50 in series [1] was less than 100 nM; at DNA-PK it was 0.5 to 1 nM. Moreover, the EC50 in series [2] (setting [4]) and in series [2] (setting [5]) was 500 to 1000 nM throughout.

For the compound `FC(F)(F)c1cnn([C@H]2CC[C@@H](Oc3nc(N4CCOCC4)cc4ncccc34)CC2)c1` [Compound 17b, 4-(5-(((1s,4s)-4-(4-(trifluoromethyl)-1H-pyrazol-1-yl)cyclohexyl)oxy)-1,6-naphthyridin-7-yl)morpholine], the IC50 at DNA-PK lay within 10 to 150 nM. Further, in series [3], the “Microsomal Stability (mouse) % rem. 60 min” value is given as “E (% remaining = 0-25%)” and the microsomal CLint at 0.1 uM was greater than 116 µL/min/mg.
